The values below come from patent US20260014125A1, “BICYCLIC-TYPE MAT2A INHIBITOR AND USE THEREOF” (HAIHE BIOPHARMA CO., LTD., priority 2022, published 2026).

One experiment relates to KP-4 cells. In words: Human pancreatic cancer KP-4 cell activity inhibition test (CellTiter-Glo). It is filed as cell-based. The conditions noted are these: 5 days. As for the experimental part: Experimental principle: after co-incubating the MAT2A inhibitor to be tested with KP-4 cells for a period of time, a cell viability measurement method based on ATP content is used to characterize the effect of the tested compound on cell viability.
Experimental material: KP-4 cells (JCRB #JCRB0182); IMDM (Gibco 912440061); fetal bovine serum (EXCELL #FND500); penicillin-streptomycin (Gibco #15140-122); 0.25% Typsin-EDTA (Gibco #252(101-072); DMSO (Sigma #D2650); 96 well plate (Corning #3610); CellTiter-Glo (Promega #G7571)
1. KP-4 cells were cultured in IMDM culture medium containing 10% e fetal bovine serum and 1% penicillin-streptomycin at 37° C. and 5% CO2 in a cell culture incubator. Only cells in logarithmic growth phase were used for subsequent experiments.
2. The cells in logarithmic growth phase were inoculated into a 96 well plate, with a seeding quantity of 500 cells per well, and incubated overnight in a cell culture incubator at 37′C and 5% CO2.
3. The compound was dissolved with DMSO, diluted with culture medium to 10 different concentrations (approximately […]), 3333.3, 1111.1, 370, 123, 41.2, 13.7, 4.6, 1.5, and 0.5 nM) before adding it to the cell plate, and cultured at 37° C. and 5% CO2 for 5 days.
4. CellTiter-Glo reagent was added, and an enzyme-linked immunosorbent assay reader was used to detect cell viability.
Data analysis: the inhibition rate (%) of the compound was calculated and fitted to obtain the IC50 of the tested compound. Calculation method for compound inhibition rate: Compound inhibition rate (%)=(Signal_max−Signal_sample)/(Signal_max−Signal_min)×100, wherein Signal_sample was the sample well reading, indicating the cell activity of the compound inhibition well; Signal_min was the positive control well reading, indicating the background activity without cells; and Signal_max was the negative control well reading, indicating the cell activity of the well without compound inhibition.
On the technique in general: Cellular ATP, detected with luciferase, serves as a proxy for viable cell number.

The next experiment concerns the target MAT2A (Homo sapiens (Human), UniProt P31153). Nature of the experiment: Biochemical test: inhibition of MAT2A enzyme activity (phosphate detection, OD620). The settings on record: MAT2A his-tag; 150 minutes enzymatic reaction. An excerpt:
Experimental principle: MAT2A can catalyze the conversion of L-methionine and ATP into SAM, inorganic phosphate, and inorganic diphosphate. By adding a chromogenic reagent to the enzymatic reaction system, the content of inorganic phosphates in a sample can be quantitatively detected, thereby characterizing the enzymatic activity of MAT2A.
Experimental material: Tris (Life Science #0497); BSA (Sigma #); MAT2A his-tag (BPS #71401-1); 384 well plate (Corning #3765); L-methionine (Admas #1100469); ATP (Sigma #A7699); MgCl2 (Sigma #M8266); KCl (Sigma #7447-40-7); Brij35 (Sigma #B4184); EDTA (Sigma #E1644)
1. 1×Assaybuffer (buffer composition: Tris, KCl, MgCl2, BSA, Brij35, and EDTA; the solvent was ultrapure water) was prepared. MAT2A his-tag enzyme solution (containing 1.3 μL of MAT2A enzyme and 998.7 μL of 1×Assaybuffer per 1000 μL) and substrate mixed solution (containing 5 μL of ATP, 1.3 μL of L-methionine, and 993.7 μL of 1×Assaybuffer per 1000 μL) were prepared using 1×AssayBuffer.
2. Preparation of compound concentration gradient: The test compound was tested with a starting concentration of 10 μM, and 10 equimolar concentrations were set according to a 3-fold dilution. Specifically, firstly, the compound was diluted into 10 different concentrations of series solutions in a 384 well plate (with final detection concentrations of 10, 3.33, 1.11, 0.37, 0.123, 0.041, 0.0137, 0.0046, 0.0015, and 0.0005 μM), and then 250 nL of the above series solutions was transferred to the 384 well reaction plate using an ultrasonic pipetting system Echo550 for later use. 250 nL of 100% DMSO was added into a negative control well and a positive control well, respectively. Double well test.
3. 15 μL of MAT2A his-tag enzyme solution was added into both the compound well and the positive control well; and 15 μL of 1×Assaybuffer was added into the negative control well.
4. The 384 well plate reaction plate was centrifuged at 1000 rpm for 60 seconds, shaken, mixed well, and incubated for 15 minutes. 10 μL of substrate mixed solution was added into each experimental well of the 384 well reaction plate to initiate the reaction.
5. The 384 well reaction plate was centrifuged at 1000 rpm for 60 seconds, shaken, mixed well, and incubated for 150 minutes.
6. 50 μL of enzyme reaction termination solution Biomol was added into all experimental wells of the 384 well reaction plate to terminate the reaction, centrifuged at 1000 rpm for 60 seconds, and incubated for 15 minutes. OD620 was read and data was processed.
Data analysis: the inhibition rate (%) of the compound was calculated and fitted to obtain the IC50 of the tested compound. Calculation method for compound inhibition rate: Compound inhibition rate (%)=(OD620_max−OD620_stample)/(OD620_max−OD620_min)×100, wherein OD620_stample was the absorbance value of the sample well; OD620 min was the absorbance value of the positive control well, indicating the reading of the wells without enzyme activity; and OD620_max was the absorbance value of the negative control well, indicating the reading of the well without compound inhibition.

Experiment [1] concerns human B-cell lymphoma DOHH-2 cell subcutaneous xenograft tumor. In words: In vivo anti-tumor efficacy in the DOHH-2 cell subcutaneous xenograft tumor model. On the set-up: species or system mice. The settings on record: 80 mg/kg, QD, intragastric; female CB-17 SCID mice, DOHH-2 xenograft. The method, then: The in vivo anti-tumor efficacy of compound 13 and AG-270 (MAT2A inhibitor,
were evaluated using a human B-cell lymphoma DOHH-2 cell subcutaneous xenograft tumor model.
The female CB-17 SCID mice used were purchased from Beijing Vital River Laboratory Animal Technology Co., Ltd. Tumor cell culture and subcutaneous inoculation: Human B-cell lymphoma DOHH-2 cells (DSMZ) were cultured in vitro in RPMI-1640 medium containing 10% fetal bovine serum and 1% […], and incubated in a 5% CO2 incubator at 37° C. When the required number of cells was reached, the cells were collected, and counted. 0.2 mL (10×10^6) of DOHH-2 cells (with matrix gel added, volume ratio of 1:1) were subcutaneously inoculated into the right back of each mouse. When the average tumor volume reached 100-150 mm^3, random grouping would begin, with 5 mice in each group. The administration group (compound 13 or compound AG-270) was performed intragastric administration twice a day (dosage shown in Table 3), while the negative control group was performed intragastric administration using the same volume of blank solvent per day.
The experimental indicator was to examine whether tumor growth was inhibited, delayed, or cured. The tumor diameter was measured twice a week using a vernier caliper. The formula for calculating tumor volume was: V=0.5a×b^2, wherein a and b indicated the long and short diameters of tumors, respectively.
The anti-tumor efficacy of the compound was evaluated using TGI (%) or relative tumor proliferation rate T/C (%).
TGI (%) reflects the tumor growth inhibition rate. Calculation of TGI (%). TGI (%)=[(1−(average tumor volume at the end of administration in the treatment group-average tumor volume at the beginning of administration in the treatment group))/(average tumor volume at the end of treatment in the negative control group-average tumor volume at the beginning of treatment in the negative control group)]×100%.
Relative tumor proliferation rate TIC (%): The calculation formula was as follows: T/C %=TRTV/CRTV×100% (TRTV: administration group RTV: CRTV: negative control group RTV). The calculation formula of the relative tumor volume (RTV) was RTV=Vt/V0, wherein V0 was the average tumor volume measured at the time of group administration (i.e. d0), Vt was the average tumor volume measured at a certain measurement, and TRTV and CRTV took the same day's data.

Chain of MAT2A (P31153 whole entry): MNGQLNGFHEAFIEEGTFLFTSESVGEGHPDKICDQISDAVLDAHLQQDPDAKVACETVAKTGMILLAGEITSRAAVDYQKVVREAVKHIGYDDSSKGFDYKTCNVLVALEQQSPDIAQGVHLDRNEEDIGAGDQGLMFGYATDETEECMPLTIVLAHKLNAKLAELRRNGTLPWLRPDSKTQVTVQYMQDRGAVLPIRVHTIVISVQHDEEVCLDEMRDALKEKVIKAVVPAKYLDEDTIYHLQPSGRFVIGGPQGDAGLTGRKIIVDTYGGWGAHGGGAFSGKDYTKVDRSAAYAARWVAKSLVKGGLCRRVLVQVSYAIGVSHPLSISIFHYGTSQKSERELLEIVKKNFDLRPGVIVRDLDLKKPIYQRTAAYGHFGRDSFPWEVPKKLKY

Usually IC50 stands for the concentration at which inhibition is half-maximal. For `CCCOc1c(-c2ccc(Cl)nc2)c(=O)n(-c2ccc3nn(C)cc3c2)c2[nH]ncc12` [Compound 58], the IC50 with KP-4 cells (Homo sapiens, 120 h) came to 3.5 nM; at MAT2A it was 14.8 nM.
Regarding `CCNc1c(-c2ccc(OC(F)F)cc2)c(=O)n(-c2ccc3nn(C)cc3n2)c2[nH]ncc12` [Compound 129], the IC50 with KP-4 cells (Homo sapiens, 120 h) came out at 23.3 nM; against MAT2A it was 17.8 nM.
As to `COc1ccc(-c2c(Nc3ccccn3)[nH]c3c(C4=CCCCC4)c(-c4ccccc4)nn3c2=O)cc1` [AG-270, reference compound], in experiment [1], the “T/C (%)” value was 22.32% and the “TGI (%)” value worked out at 82.92%.
Consider `CCOc1c(-c2ccc(C(F)(F)F)nc2)c(=O)n(-c2ccc3nn(C4COC4)cc3c2)c2[nH]ncc12` [Compound 92], for which the IC50 with KP-4 cells (Homo sapiens, 120 h) was 279 nM; against MAT2A it was 19.1 nM.
For `Cn1cc2cc(-n3c(=O)c(-c4ccc(F)cc4)c(OCC4CC4)c4cn[nH]c43)ccc2n1` [Compound 51], the concentration for half-maximal inhibition (IC50) is 35.7 nM in the experiment with KP-4 cells (Homo sapiens, 120 h) and 15.7 nM against MAT2A.
For `CCOc1c(-c2ccc(Cl)cc2)c(=O)n(-c2ccc3ncn(C)c3c2)c2[nH]ncc12` [Compound 33], the IC50 is 41.5 nM in the experiment with KP-4 cells (Homo sapiens, 120 h) and 14.9 nM on MAT2A.
Take `CCOc1c(-c2ccc(OC(F)F)cc2)c(=O)n(-c2ccc3nn(C)cc3n2)c2[nH]ncc12` [Compound 41]: the IC50 with KP-4 cells (Homo sapiens, 120 h) amounted to 11.4 nM; on MAT2A it was 12.7 nM.
On to `CCOc1c(-c2ccc(Cl)cc2)c(=O)n(C2=NC3C(C=C2)N=NN3C)c2[nH]ncc12` (centres unmarked) [Compound 141], for which the IC50 in the experiment with KP-4 cells (Homo sapiens, 120 h) worked out at 146 nM; against MAT2A it was 16.7 nM.
As for `CCOc1c(-c2ccc(Cl)cc2)c(=O)n(-c2ccc3nn(C)c(C)c3c2)c2[nH]ncc12` [Compound 66], the IC50 in the experiment with KP-4 cells (Homo sapiens, 120 h) was 12.7 nM; at MAT2A, 13.7 nM.
As for `CCOc1c(-c2ccc(OC(F)F)cc2)c(=O)n(-c2ccc3nncn3c2)c2[nH]ncc12` [Compound 26], the half-inhibitory concentration (IC50) was determined as 659 nM in the experiment with KP-4 cells (Homo sapiens, 120 h) and 13.5 nM against MAT2A.
On to `CCNc1c(-c2ccc(OC)cc2)c(=O)n(-c2ccc(OC)cc2)c2[nH]ncc12` [Compound 10], for which the IC50 in the experiment on KP-4 cells (Homo sapiens, 120 h) came to 618 nM; on MAT2A, 20.6 nM.
As for `CCNc1c(-c2ccc(OC(F)F)cc2)c(=O)n(-c2ccc3nn(C)cc3c2)c2[nH]ncc12` [Compound 9], the IC50 in the experiment with KP-4 cells (Homo sapiens, 120 h) was found to be 24.7 nM; at MAT2A it was 15.3 nM.
For `CCOc1c(-c2ccc(Br)cc2)c(=O)n(-c2ccc3nn(C)cc3c2)c2[nH]ncc12` [Compound 54], in that order: 19.2 nM and 12.9 nM.
Consider `CCOc1c(-c2ccc(Cl)cc2)c(=O)n(-c2ccc3nn(C)nc3n2)c2[nH]ncc12` [Compound 137], for which the IC50 in the experiment on KP-4 cells (Homo sapiens, 120 h) was 427 nM; against MAT2A, 16.8 nM.
As to `Cn1cc2cc(-n3c(=O)c(-c4ccc(F)cc4)c(OCC(F)(F)F)c4cn[nH]c43)ccc2n1` [Compound 49], the IC50 in the experiment with KP-4 cells (Homo sapiens, 120 h) came to 57.8 nM; against MAT2A it was 17.9 nM.
`Cn1cc2cc(-n3c(=O)c(-c4ccc(Cl)cc4)c(NCC4CC4)c4cn[nH]c43)ccc2n1` [Compound 123]: the concentration for half-maximal inhibition (IC50) was found to be 3.7 nM in the experiment on KP-4 cells (Homo sapiens, 120 h) and 11.7 nM against MAT2A.
Consider `COc1ccc(-c2cc3cn[nH]c3n(-c3ccc4nn(C)cc4c3)c2=O)cc1` [Compound 1], for which the IC50 in the experiment with KP-4 cells and on MAT2A was greater than 10000 nM in each case.
Regarding `COc1ccc(-c2c(NCC3CC3)c3cn[nH]c3n(-c3ccc4nn(C)cc4n3)c2=O)cc1` [Compound 5], the IC50 in the experiment on KP-4 cells (Homo sapiens, 120 h) is 28 nM; at MAT2A, 17.7 nM.
Turning to `CCOc1c(-c2ccc(F)c(F)c2)c(=O)n(-c2ccc3nn(C)cc3c2)c2[nH]ncc12` [Compound 118], the IC50 with KP-4 cells (Homo sapiens, 120 h) was 136 nM; at MAT2A it was 16 nM.
For `Cn1cc2cc(-n3c(=O)c(-c4ccc(Cl)cc4)c(OCC(F)(F)F)c4cn[nH]c43)ccc2n1` [Compound 28], in that order: 5.2 nM and 15 nM.
Regarding `O=c1c(-c2ccc(Cl)cc2)c(OCC(F)(F)F)c2cn[nH]c2n1-c1ccc2nn(C3COC3)cc2c1` [Compound 93], the IC50 stood at 1.5 nM with KP-4 cells (Homo sapiens, 120 h) and 16.2 nM at MAT2A.
On to `CCOc1c(-c2ccc(OC(F)F)cc2)c(=O)n(-c2ccc3nn(C4COC4)cc3c2)c2[nH]ncc12` [Compound 37], for which the half-maximal inhibitory concentration (IC50) in the experiment with KP-4 cells (Homo sapiens, 120 h) is 36 nM; at MAT2A, 11 nM.
Take `CNc1c(-c2ccc(OC)cc2)c(=O)n(-c2ccc3nn(C)cc3c2)c2[nH]ncc12` [Compound 4]: the half-maximal inhibitory concentration (IC50) in the experiment with KP-4 cells (Homo sapiens, 120 h) was 28 nM; against MAT2A, 62 nM.
For the molecule `CCOc1c(-c2cnc(C(F)(F)F)nc2)c(=O)n(-c2ccc3nn(C)cc3c2)c2[nH]ncc12` [Compound 124], the concentration for half-maximal inhibition (IC50) amounted to 236 nM in the experiment with KP-4 cells (Homo sapiens, 120 h) and 18 nM against MAT2A.
With `CCOc1c(-c2ccc(C(F)(F)F)nc2)c(=O)n(-c2ccc3nn(C)cc3c2)c2[nH]ncc12` [Compound 46], the IC50 in the experiment on KP-4 cells (Homo sapiens, 120 h) is 60.9 nM; against MAT2A, 15.3 nM.
